Measured values reported in the NIST ThermoML archive (doi:10.1016/j.jct.2019.02.011).

Assays:
[1] = Liquid, Vibrating tube method
[2] = xn = mol fraction of the nth substance listed; details: Liquid, Vibrating tube method, x2 = 0

COC(=O)OC [dimethyl carbonate]
mass density [kg/m3], [1]
Details | 100 kPa | 5000 kPa | 10000 kPa | 15000 kPa | 20000 kPa | 25000 kPa | 30000 kPa | 35000 kPa | 40000 kPa
288.15 K | 1076.83 | 1081.15 | 1085.32 | 1089.52 | 1093.35 | 1096.99 | 1100.63 | 1104.08 | 1107.4
293.15 K | 1070.06 | 1074.62 | 1078.93 | 1083.01 | 1087.08 | 1091.03 | 1094.75 | 1098.34 | 1101.84
298.15 K | 1063.45 | 1068 | 1072.51 | 1076.72 | 1080.9 | 1084.89 | 1088.82 | 1092.44 | 1096.04
303.15 K | 1056.61 | 1061.47 | 1066.02 | 1070.49 | 1074.79 | 1078.99 | 1082.9 | 1086.6 | 1090.4
308.15 K | 1049.91 | 1054.84 | 1059.69 | 1064.3 | 1068.73 | 1073 | 1077.1 | 1080.78 | 1084.38

CCO [ethanol]
mass density [kg/m3], [1]
Details | 100 kPa | 5000 kPa | 10000 kPa | 15000 kPa | 20000 kPa | 25000 kPa | 30000 kPa | 35000 kPa | 40000 kPa
288.15 K | 794.39 | 798.18 | 802.2 | 806.02 | 809.69 | 812.95 | 816.23 | 819.12 | 822.29
293.15 K | 789.87 | 793.83 | 797.88 | 801.84 | 805.45 | 809.12 | 812.52 | 815.8 | 818.81
298.15 K | 785.59 | 789.72 | 793.76 | 797.75 | 801.4 | 805.07 | 808.47 | 811.58 | 815.03
303.15 K | 781.19 | 785.47 | 789.66 | 793.71 | 797.54 | 801.26 | 804.81 | 808.29 | 811.43
308.15 K | 776.6 | 780.98 | 785.42 | 789.62 | 793.63 | 797.42 | 801.06 | 804.6 | 808.06

CCO [ethanol] + COC(=O)OC
mass density [kg/m3], [2]
Details | 100 kPa | 5000 kPa | 10000 kPa | 15000 kPa | 20000 kPa | 25000 kPa | 30000 kPa | 35000 kPa | 40000 kPa
288.15 K | 794.39 | 798.18 | 802.2 | 806.02 | 809.69 | 812.95 | 816.23 | 819.12 | 822.29
293.15 K | 789.87 | 793.83 | 797.88 | 801.84 | 805.45 | 809.12 | 812.52 | 815.8 | 818.81
298.15 K | 785.59 | 789.72 | 793.76 | 797.75 | 801.4 | 805.07 | 808.47 | 811.58 | 815.03
303.15 K | 781.19 | 785.47 | 789.66 | 793.71 | 797.54 | 801.26 | 804.81 | 808.29 | 811.43
308.15 K | 776.6 | 780.98 | 785.42 | 789.62 | 793.63 | 797.42 | 801.06 | 804.6 | 808.06

CO [methanol]
mass density [kg/m3], [1]
Details | 100 kPa | 5000 kPa | 10000 kPa | 15000 kPa | 20000 kPa | 25000 kPa | 30000 kPa | 35000 kPa | 40000 kPa
288.15 K | 796.19 | 800.57 | 804.93 | 808.85 | 812.92 | 816.56 | 820.09 | 823.62 | 827.04
293.15 K | 791.18 | 795.97 | 800.47 | 804.52 | 808.43 | 812.34 | 815.93 | 819.32 | 822.48
298.15 K | 786.76 | 791.52 | 795.8 | 800.13 | 804.18 | 808.04 | 811.69 | 815.2 | 818.33
303.15 K | 782.07 | 786.79 | 791.31 | 795.85 | 800.16 | 804.08 | 807.78 | 811.31 | 814.7
308.15 K | 777.09 | 781.85 | 786.63 | 791.23 | 795.58 | 799.85 | 803.73 | 807.42 | 811.08

CO [methanol] + COC(=O)OC
mass density [kg/m3], [2]
Details | 100 kPa | 5000 kPa | 10000 kPa | 15000 kPa | 20000 kPa | 25000 kPa | 30000 kPa | 35000 kPa | 40000 kPa
288.15 K | 796.19 | 800.57 | 804.93 | 808.85 | 812.92 | 816.56 | 820.09 | 823.62 | 827.04
293.15 K | 791.18 | 795.97 | 800.47 | 804.52 | 808.43 | 812.34 | 815.93 | 819.32 | 822.48
298.15 K | 786.76 | 791.52 | 795.8 | 800.13 | 804.18 | 808.04 | 811.69 | 815.2 | 818.33
303.15 K | 782.07 | 786.79 | 791.31 | 795.85 | 800.16 | 804.08 | 807.78 | 811.31 | 814.7
308.15 K | 777.09 | 781.85 | 786.63 | 791.23 | 795.58 | 799.85 | 803.73 | 807.42 | 811.08

CCCO [propan-1-ol]
mass density [kg/m3], [1]
Details | 100 kPa | 5000 kPa | 10000 kPa | 15000 kPa | 20000 kPa | 25000 kPa | 30000 kPa | 35000 kPa | 40000 kPa
288.15 K | 807.62 | 811.32 | 814.7 | 817.95 | 821.27 | 824.24 | 827.24 | 830.04 | 832.73
293.15 K | 803.57 | 807.24 | 810.8 | 814.22 | 817.46 | 820.74 | 823.7 | 826.5 | 829.09
298.15 K | 799.61 | 803.49 | 807.15 | 810.5 | 813.78 | 816.92 | 820.04 | 822.87 | 825.81
303.15 K | 795.62 | 799.57 | 803.13 | 806.69 | 810.14 | 813.48 | 816.64 | 819.75 | 822.6
308.15 K | 791.31 | 795.4 | 799.21 | 802.79 | 806.37 | 809.72 | 813.03 | 816.12 | 819.06

CCCO [propan-1-ol] + COC(=O)OC
mass density [kg/m3], [2]
Details | 100 kPa | 5000 kPa | 10000 kPa | 15000 kPa | 20000 kPa | 25000 kPa | 30000 kPa | 35000 kPa | 40000 kPa
288.15 K | 807.62 | 811.32 | 814.7 | 817.95 | 821.27 | 824.24 | 827.24 | 830.04 | 832.73
293.15 K | 803.57 | 807.24 | 810.8 | 814.22 | 817.46 | 820.74 | 823.7 | 826.5 | 829.09
298.15 K | 799.61 | 803.49 | 807.15 | 810.5 | 813.78 | 816.92 | 820.04 | 822.87 | 825.81
303.15 K | 795.62 | 799.57 | 803.13 | 806.69 | 810.14 | 813.48 | 816.64 | 819.75 | 822.6
308.15 K | 791.31 | 795.4 | 799.21 | 802.79 | 806.37 | 809.72 | 813.03 | 816.12 | 819.06
